# Patent US20080262228A1, “Metabolites of 5-fluoro-8- quinoline and methods of preparation and uses thereof” (Wyeth, priority 2006, published 2008)
# Tests used:
# [1] = Metabolite characterization in cryopreserved hepatocytes; conditions: hepatocyte incubations, 20 μM; R, rat; D, dog; H, human; Media = decomposition product observed in media control
# Description: Pooled male rat, dog, and mixed male and female human cryopreserved hepatocytes were used in this study. The cryopreserved hepatocytes (two vials from each species; three to five million viable cells per vial) were thawed in a 37° C. water bath with gentle shaking until the ice was almost melted. The suspensions from the two individual vials of the same species were immediately transferred to a 50 mL centrifuge tube containing pre-warmed thawing media at 37° C. with gentle handshaking to prevent the cells from settling. The cell suspension was centrifuged at 50 g for 5 min at 4° C. Supernatants were discarded and the pellets were resuspended in pre-warmed incubation media (8 mL) at 37° C. […] [^14C]COMPOUND I (20 μM) was incubated in a 12-well plate containing hepatocyte suspensions at 1.0 mL per well in duplicate (≧1 million viable cells/well) at 37° C. for 1 or 4 hr in the presence of 5% CO2:95% O2. Control incubations without hepatocytes were also run under the same conditions. Positive controls containing [^14C]7-ethoxycoumarin (100 μM) were also incubated under the same conditions, but only for 1 hr. At the end of the incubations, reactions were stopped by adding acetonitrile with 2% acetic acid (1 mL), mixed for 10 min, followed by centrifugation at 4000 rpm for 10 min at 4° C. Aliquots (50 μL) of supernatants were analyzed by HPLC with UV and radioactivity flow detection for metabolite profiling, and by LC/MS for metabolite identification as described in below. To determine extraction recovery, aliquots (20 μL) of supernatants were analyzed for radioactivity content utilizing a Packard Tri-Carb Model 3100 TR liquid scintillation counter and 5 mL of Ultima Gold.
# The HPLC system used for mass spectrometric analysis was a Waters Alliance model 2695 HPLC system (Waters Corp). It was equipped with a built-in autosampler and a model 996 diode array UV detector. The UV detector was set to monitor 210-400 nm. The HPLC conditions were the same as those described hereinabove with the following exceptions. […]
# [2] = Metabolite profiling in liver microsomes and S9; format: in vitro ADME, rat, dog, monkey, human; conditions: liver microsomes and S9, 10 μM COMPOUND I, 30 min; species letters not defined
# Description: Microsomal incubations for metabolite profiling were similar to those described above for intrinsic clearance determination (see Table 1). Aliquots of COMPOUND I (10 μL), dissolved in DMSO:methanol (1:9), were added to a 96-well plate containing phosphate buffer, and MgCl2 and the liver microsomes at 37° C. using the same automation apparatus as for the stability study described hereinabove. The reactions were initiated by the addition of the UDPGA and NADPH generating system. The final incubation volume for all samples was 1 mL and the length of incubation was 30 min. […] Three 250 μL aliquots were transferred to a 96-well plate containing 900 μL acetonitrile to precipitate the protein. […] The samples were then reconstituted in 150 μL of 20% methanol in water. The three aliquots for each sample were pooled and analyzed by LC/MS.
# S9 incubation buffer and cofactors were chosen to allow N-acetylation and carbamoyl glucuronidation in addition to oxidative and glucuronidation pathways possible in liver microsomes. Incubations of sulfamethazine and SCA-136 with liver S9 were used as positive controls for N-acetylation and carbamoyl glucuronidation, respectively. Following a 30 min. incubation, 750 μL from each sample were added to 900 μL acetonitrile. Following centrifugation and evaporation of the supernatant, the samples were reconstituted in 450 μL of 20% methanol in water for analysis by HPLC/UV and LC/MS (see below).
# The HPLC system used for mass spectrometric analysis was an Agilent 1100 HPLC (Agilent Technologies, Palo Alto, Calif.) equipped with a binary pump and a diode array UV detector. The UV detector was set to monitor 190-400 nm. Separations were accomplished on a Luna C18 column (150×2.1 mm, 5 μm) (Phenomenex Incorporated, Torrance, Calif.).
# The mass spectrometer used for metabolite characterization was a Finnigan LCQ Deca ion trap mass spectrometer (Thermo Electron Corp.). […] Full scan and data dependent MS2 and MS3 mass spectra were recorded. Finnigan Xcalibur software (version 1.3) was used for control of equipment and recording of data from UV and LC/MS analyses.
# Chromatographic profiles of COMPOUND I (10 μM) metabolites in incubations with liver microsomes in the presence of NADPH are presented in FIG. 1. Chromatographic profiles of COMPOUND I (10 μM) metabolites in incubations with liver microsomes in the presence of NADPH and UDPGA are presented in FIG. 2. Chromatographic profiles of COMPOUND I (10 μM) metabolites in incubations with liver S9 in the presence of NADPH, UDPGA and acetyl coenzyme A (CoA) are presented in FIG. 3. In incubations containing NADPH, UDPGA and acetyl CoA, fourteen Phase I metabolites (M1, M6, M8, M12, M13, M14, M15, M16, M17, M18, M20, M21, M22 and M23) and six Phase II metabolites (M2, M3, M5, M7, M9 and M10) were observed. In incubations without cofactors, no metabolites were observed.
# LC/MS analysis was conducted on extracts of mouse, rat, monkey and human liver microsomes and S9. The mass spectral data for the characterized COMPOUND I metabolites are discussed below.
# [3] = In vivo metabolism of [14C]COMPOUND I in Sprague-Dawley rats, single oral 5 mg/kg dose; design: species or system rat; conditions: for Chromatographic Distribution of Radioactivity in Pooled Plasma Samples: 5 mg/kg oral [14C]COMPOUND I
# Description: Dose preparation, animal dosing, and specimen collection were performed at Wyeth Research, Collegeville, Pa. The vehicle contained 2% (w/v) polysorbate 80, NF and 0.5% (w/v) methylcellulose (4000 cps) in water. [^14C]COMPOUND I trisuccinate salt (36.6 mg) and non-labeled COMPOUND I trisuccinate salt (26.7 mg) were dissolved in 1 mL of ethanol and suspended in 35 mL of the vehicle with stirring. The target [^14C]COMPOUND I concentration was approximately 1 mg/mL as free base and 70 μCi/mL with a target specific activity of 70 μCi/mg. Three pre- and post-dose aliquots (100 μL) were taken for the determination of radiochemical purity, drug and radioactivity concentrations and specific activity (see below).
# Male rats weighing from 323 to 354 g and female rats weighing from 270 to 317 g at the time of dosing were purchased from Charles River Laboratories (Wilmington, Mass.). Non-fasted rats were given a single 5 mg/kg (˜350 μCi/kg) dose of [^14C]COMPOUND I at a volume of 5.0 mL/kg via intragastric gavage. Three rats were dosed for each time point. Animals were provided Purina rat chow and water ad libitum, and were kept individually in metabolism cages.
# Blood samples were collected at 1, 3, 6 and 24 hr from male rats and at 1 and 3 hr from female rats after dose administration by cardiac puncture into tubes containing EDTA as the anticoagulant and placing them on ice. Triplicate aliquots (50 μL) of whole blood were removed and plasma was immediately obtained from the remaining blood by centrifugation at 4° C. Whole brain samples were collected after saline perfusion at 1, 3, 6 and 24 hr post-dose from male rats and at 1 and 3 hr post-dose from female rats. Urine samples were collected on dry ice from male rats at intervals of 0-6 and 6-24 hr post-dose. Feces were collected from male rats at 0-24 hr post-dose at room temperature. The biological specimens and aliquots of the dose suspension were stored at approximately −70° C. until analysis.
# Triplicate aliquots of diluted dose (20 μL), dose fractions (10 μL), and plasma (50 μL) and urine (100 μL) from individual rats were analyzed for radioactivity concentrations. Radioactivity determinations were made with a Tri-Carb Model 3100 TR liquid scintillation counter (LSC) (Perkin Elmer) using 5 mL of Ultima Gold as the scintillation fluid.
# Brain and fecal samples from individual rats were weighed and homogenized in water at a volume-to-weight ratio of about 3:1 and 5:1, respectively, with a Polytron PT homogenizer at ice-cold temperature. Duplicate aliquots of blood (50 μL), brain homogenates (0.2 g) and fecal homogenates (0.2 g) were placed on Combusto-cones with Combusto-pads and allowed to dry overnight. Samples were combusted with a model 307 Tri-Carb Sample Oxidizer, equipped with an Oximate-80 Robotic Automatic Sampler (Perkin Elmer). The liberated ^14CO2 was trapped with Carbo-Sorb E carbon dioxide absorber, mixed with PermaFluor® E^+ liquid scintillation cocktail, and counted in a Tri-Carb Model 3100 TR/LL liquid scintillation counter (Perkin Elmer).
# Plasma samples were pooled by equal volumes from three animals at each time point (1, 3, 6 and 24 hr for males; 1 and 3 hr for females). Aliquots of 2 mL of pooled plasma were mixed with 2 mL of acetonitrile, placed on ice for about 10 min, and then centrifuged at 4° C. The supernatant was transferred to a clean tube. The protein pellets were extracted two more times with 4 mL of acetonitrile. The supernatants from precipitation and extraction of each sample were pooled, mixed, and evaporated at 22° C. under nitrogen in a TurboVap LV evaporator (Caliper Life Sciences, Hopkinton, Mass.) to about 1.0 mL. The concentrated extract was centrifuged, the supernatant volume measured and the extraction efficiency was determined by analyzing duplicate 10 μL aliquots for radioactivity concentrations.
Compound,Source [1],Species (in which the metabolite was characterized) [2],"Chromatographic Distribution of Radioactivity in Pooled Plasma Samples ([3]; female rats, 1 hr)","Chromatographic Distribution of Radioactivity in Pooled Plasma Samples ([3]; female rats, 3 hr)","percent of total plasma radioactivity ([3]; male and female rats, range over time points, 5 mg/kg oral)","Chromatographic Distribution of Radioactivity in Pooled Plasma Samples ([3]; male rats, 1 hr)","Chromatographic Distribution of Radioactivity in Pooled Plasma Samples ([3]; male rats, 3 hr)","Chromatographic Distribution of Radioactivity in Pooled Plasma Samples ([3]; male rats, 6 hr)"
"COc1cc(N2CCN(C3CCN(c4ccc(O)c5cccnc45)CC3)CC2)c2ncccc2c1 [Metabolite M18, Hydroxy desfluoro COMPOUND I]","D (trace), H","R, D, M, H",,,,,,
"COc1cc(N2CCN(C3CCN(c4ccc(OC5OC(C(=O)O)C(O)C(O)C5O)c5cccnc45)CC3)CC2)c2ncccc2c1 (stereo not drawn) [Metabolite M5, Hydroxy desfluoro COMPOUND I glucuonide]",,"R, D, M, H",9.6%,16.2%,9.6-17.1%,15.2%,17.1%,16.5%
